US20120077836A1, “METHODS OF ADMINISTERING (4AR,10AR)-1-N-PROPYL-1,2,3,4,4A,5,10,10A-OCTAHYDROBENZO [G] QUINOLINE-6,7-DIOL AND RELATED COMPOUNDS ACROSS THE ORAL MUCOSA, THE NASAL MUCOSA OR THE SKIN AND PHARMACEUTICAL COMPOSITIONS THEREOF” (priority 2009, published 2012)
Structures can show the parent of a compound that is named as a salt. Where two headings read alike, the source gives them in different places.

Test: Intravenous and buccal pharmacokinetic study in the minipig
Assay type: in vivo
Settings: male, Göttingen, in vivo
Method: The test article was compound 10. The vehicles for the test article were Sterile saline (0.9% NaCl) (intravenous administration) supplied by Baxter, Norfolk or Ascorbic acid reconstituted in Water for Injection (buccal administration) supplied by VWR International, Leicestershire. Formulations were prepared on the day of dosing.
Three male minipigs of the Göttingen ApS strain were supplied by Ellegaard Göttingen, Dalmose, Denmark. At initiation of dosing, animals were approximately 15 to 17 weeks old. Each animal was dosed once on three separate occasions according to the following study design:
Animals were deprived of food overnight and anaesthetised with isoflurane in oxygen (administered by facemask), prior to each dosing occasion.
Intravenous administrations were performed by slow manual injection via a temporary catheter placed in the ear vein whilst under anaesthesia, animals were allowed to recover from the anaesthesia immediately after dosing. Whilst anaesthetised, a catheter was inserted into the jugular vein and secured in place for the purpose of blood collection. The catheter was filled with heparin (250 iu/mL in 0.9% sodium chloride). The exterior portion of the catheter was routed from the ventral neck to the dorsum of the minipig and protected by bandaging. The distal end of the catheter was capped and placed in a re-sealable pouch within the bandage. The jugular catheter was retained in place and flushed with heparinised saline every 24 hours.
Buccal administrations were performed by applying the test formulation to the buccal membrane for 5 minutes while the animal was anaesthetised. Any residual formulation remaining in the mouth after the 5 minute application was […]. Animals were allowed to recover from the anaesthesia immediately after dosing.
, all animals on Day 3 following buccal administration of a low dose and all animals on Day 5 following buccal administration of a high dose for pharmacokinetic analysis. The samples (1.0 mL) were collected from the jugular vein (via catheter) into tubes containing EDTA anticoagulant. Prior to addition of the blood sample, 100 microL of a stabiliser (2% beta-mercaptoethanol containing 20 mg/mL ascorbic acid) was added to each pot. The stabiliser was prepared fresh on each day of sample collection. Samples were collected as follows: • Day 1: 5, 10, 15, 30 and 45 minutes and 1, 2, 4, 6, 8, 12 and 16 hours post-dose • Day 3: pre-dose and at 5, 10, 15, 30 and 45 minutes and 1, 2, 4, 6, 8, 12, 16 and 24 hours post-dose • Day 5: pre-dose and at 5, 10, 15, 30 and 45 minutes and 1, 2, 4, 6, 8, 12, 16 and 24 hours post-dose
The times of the blood sampling were generally adhered to. The greatest deviation from the scheduled timepoints was one minute late at the 5 minute timepoint on Day 3. The blood samples were centrifuged within one hour of sample collection and the resultant plasma was frozen prior to analysis.
The plasma concentrations of compound 10 were determined after solid phase extraction of the plasma samples followed by high performance liquid chromatography with tandem mass spectrometric detection (LC-MS/MS) using a sample volume of about 100 microL.
Internal standard solution, containing the internal standard of compound 10 was added to thawed plasma samples (100 microL aliquot). The SPE plate (Oasis HLB, 10 mg) was conditioned with methanol (500 microL) followed by water (500 microL). The sample (approx. 500 microL aliquot) was transferred to the pre-conditioned SPE plate. The sample was then passed through the cartridge, which was then washed with water:methanol (90:10 v/v, 0.5 mL). The sample was then eluted into a fresh 96 well polypropylene collection plate with 20 mM ammonium formate (aq): acetonitrile: formic acid (50:50:2 v/v/v, 250 microL). The organic component of the eluted samples was then evaporated under a gentle stream of nitrogen until approximately 50% of the original volume was remaining. […]

## CCCN1CCC[C@@H]2Cc3c(ccc(O)c3O)C[C@H]21 [compound 10, (4aR,10aR)-1-n-Propyl-1,2,3,4,4a,5,10,10a-octahydro-benzo[g]quinoline-6,7-diol hydrobromide]
0.01 mg/kg, buccal 0.010 mg/kg, mean, read-out: Plasma concentration Day 3 Hour 0.17, Mean
  concentration at 0.17 h: 0.148 ng/mL
0.01 mg/kg, buccal 0.010 mg/kg, mean, read-out: Plasma concentration Day 3 Hour 0.25, Mean
  concentration at 0.25 h: 0.314 ng/mL
0.01 mg/kg, buccal 0.010 mg/kg, mean, read-out: Plasma concentration Day 3 Hour 0.5, Mean
  concentration at 0.5 h: 0.752 ng/mL
0.01 mg/kg, buccal 0.010 mg/kg, mean, read-out: Plasma concentration Day 3 Hour 0.75, Mean
  concentration at 0.75 h: 1.04 ng/mL
0.01 mg/kg, buccal 0.010 mg/kg, mean, read-out: Plasma concentration Day 3 Hour 1, Mean
  concentration at 1 h: 0.869 ng/mL
0.01 mg/kg, buccal 0.010 mg/kg, mean, read-out: Plasma concentration Day 3 Hour 2, Mean
  concentration at 2 h: 0.487 ng/mL
0.01 mg/kg, buccal 0.010 mg/kg, range, read-out: bioavailability
  bioavailability: 30 to 42%
0.01 mg/kg, buccal 0.010 mg/kg, read-out: bioavailability, mean values
  bioavailability: 31 to 35%
0.01 mg/kg, buccal 0.010 mg/kg, read-out: mean apparent terminal half-life (converted)
  half-life: 5.1 h
0.04 mg/kg, buccal 0.040 mg/kg, animal 1
  Tmax: 1 h
0.04 mg/kg, buccal 0.040 mg/kg, individual animals 1-3, read-out: Plasma concentration Day 5 Hour 0.5
  concentration at 0.5 h: 7.88 ng/mL
0.04 mg/kg, buccal 0.040 mg/kg, individual animals 1-3, read-out: Plasma concentration Day 5 Hour 0.75
  concentration at 0.75 h: 15.9 ng/mL
0.04 mg/kg, buccal 0.040 mg/kg, individual animals 1-3, read-out: Plasma concentration Day 5 Hour 1
  concentration at 1 h: 11.9 ng/mL
0.04 mg/kg, buccal 0.040 mg/kg, mean, read-out: Plasma concentration Day 1 Hour 4, Mean
  concentration at 4 h: 1.93 ng/mL
0.04 mg/kg, buccal 0.040 mg/kg, mean, read-out: Plasma concentration Day 1 Hour 6, Mean
  concentration at 6 h: 0.93 ng/mL
0.04 mg/kg, buccal 0.040 mg/kg, mean, read-out: Plasma concentration Day 1 Hour 8, Mean
  concentration at 8 h: 0.522 ng/mL
0.04 mg/kg, buccal 0.040 mg/kg, mean, read-out: Plasma concentration Day 1 Hour 12, Mean
  concentration at 12 h: 0.604 ng/mL
0.04 mg/kg, buccal 0.040 mg/kg, mean, read-out: Plasma concentration Day 1 Hour 16, Mean
  concentration at 16 h: 0.292 ng/mL
0.04 mg/kg, buccal 0.040 mg/kg, mean, read-out: Plasma concentration Day 1 Hour 24, Mean
  concentration at 24 h: 0.119 ng/mL
0.04 mg/kg, buccal 0.040 mg/kg, mean, read-out: Plasma concentration Day 5 Hour 0.08, Mean
  concentration at 0.08 h: 1.29 ng/mL
0.04 mg/kg, buccal 0.040 mg/kg, mean, read-out: Plasma concentration Day 5 Hour 0.17, Mean
  concentration at 0.17 h: 3.27 ng/mL
0.04 mg/kg, buccal 0.040 mg/kg, mean, read-out: Plasma concentration Day 5 Hour 0.25, Mean
  concentration at 0.25 h: 5.45 ng/mL
0.04 mg/kg, buccal 0.040 mg/kg, mean, read-out: Plasma concentration Day 5 Hour 0.5, Mean
  concentration at 0.5 h: 7.14 ng/mL
0.04 mg/kg, buccal 0.040 mg/kg, mean, read-out: Plasma concentration Day 5 Hour 0.75, Mean
  concentration at 0.75 h: 12.4 ng/mL
0.04 mg/kg, buccal 0.040 mg/kg, mean, read-out: Plasma concentration Day 5 Hour 1, Mean
  concentration at 1 h: 10.8 ng/mL
0.04 mg/kg, buccal 0.040 mg/kg, mean, read-out: Plasma concentration Day 5 Hour 2, Mean
  concentration at 2 h: 6.3 ng/mL
0.04 mg/kg, buccal 0.040 mg/kg, range, read-out: bioavailability
  bioavailability: 73 to 136%
0.04 mg/kg, buccal 0.040 mg/kg, read-out: bioavailability, mean values
  bioavailability: 105 to 122%
0.04 mg/kg, buccal 0.040 mg/kg, read-out: mean apparent terminal half-life (converted)
  half-life: 5.6 h
IV bolus 0.0025 mg/kg, range of animals, read-out: apparent terminal elimination half-life (t½)
  half-life: 3.4 to 4.3 h
IV bolus 0.025 mg/kg (as printed in conclusion), read-out: individual apparent terminal elimination half-life
  half-life: 3.4 to 4.3 h
buccal, range in individual animals, read-out: apparent terminal elimination half-life
  half-life: 3.1 to 5.6 h
iv, 0.0025 mg/kg, IV 0.0025 mg/kg, individual animals 1-3, read-out: Plasma concentration Day 1 Hour 0.08
  concentration at 0.08 h: 1.21 ng/mL
iv, 0.0025 mg/kg, IV 0.0025 mg/kg, individual animals 1-3, read-out: Plasma concentration Day 1 Hour 0.17
  concentration at 0.17 h: 0.834 ng/mL
iv, 0.0025 mg/kg, IV 0.0025 mg/kg, individual animals 1-3, read-out: Plasma concentration Day 1 Hour 0.25
  concentration at 0.25 h: 0.74 ng/mL
iv, 0.0025 mg/kg, IV 0.0025 mg/kg, individual animals 1-3, read-out: Plasma concentration Day 1 Hour 0.5
  concentration at 0.5 h: 0.562 ng/mL
iv, 0.0025 mg/kg, IV 0.0025 mg/kg, individual animals 1-3, read-out: Plasma concentration Day 1 Hour 0.75
  concentration at 0.75 h: 0.534 ng/mL
iv, 0.0025 mg/kg, IV 0.0025 mg/kg, individual animals 1-3, read-out: Plasma concentration Day 1 Hour 1
  concentration at 1 h: 0.379 ng/mL
iv, 0.0025 mg/kg, IV 0.0025 mg/kg, individual animals 1-3, read-out: Plasma concentration Day 1 Hour 2
  concentration at 2 h: 0.198 ng/mL
iv, 0.0025 mg/kg, IV 0.0025 mg/kg, individual animals 1-3, read-out: Plasma concentration Day 1 Hour 4
  concentration at 4 h: 0.0748 ng/mL
iv, 0.0025 mg/kg, IV 0.0025 mg/kg, individual animals 1-3, read-out: Plasma concentration Day 1 Hour 6
  concentration at 6 h: 0.0476 ng/mL
iv, 0.0025 mg/kg, IV 0.0025 mg/kg, individual animals 1-3, read-out: Plasma concentration Day 1 Hour 8
  concentration at 8 h: 0.0245 ng/mL
iv, 0.0025 mg/kg, IV 0.0025 mg/kg, individual animals 1-3, read-out: Plasma concentration Day 1 Hour 12
  concentration at 12 h: 0.017 ng/mL
iv, 0.0025 mg/kg, IV 0.0025 mg/kg, individual animals 1-3, values below LLOQ 10 pg/mL estimated, read-out: Plasma concentration Day 1 Hour 16
  concentration at 16 h: 0.00858 ng/mL
iv, 0.0025 mg/kg, IV 0.0025 mg/kg, mean, read-out: Plasma concentration Day 1 Hour 0.08, Mean
  concentration at 0.08 h: 1.62 ng/mL
iv, 0.0025 mg/kg, IV 0.0025 mg/kg, mean, read-out: Plasma concentration Day 1 Hour 0.17, Mean
  concentration at 0.17 h: 1.02 ng/mL
iv, 0.0025 mg/kg, IV 0.0025 mg/kg, mean, read-out: Plasma concentration Day 1 Hour 0.25, Mean
  concentration at 0.25 h: 0.913 ng/mL
iv, 0.0025 mg/kg, IV 0.0025 mg/kg, mean, read-out: Plasma concentration Day 1 Hour 0.5, Mean
  concentration at 0.5 h: 0.673 ng/mL
iv, 0.0025 mg/kg, IV 0.0025 mg/kg, mean, read-out: Plasma concentration Day 1 Hour 0.75, Mean
  concentration at 0.75 h: 0.619 ng/mL
iv, 0.0025 mg/kg, IV 0.0025 mg/kg, mean, read-out: Plasma concentration Day 1 Hour 1, Mean
  concentration at 1 h: 0.421 ng/mL
iv, 0.0025 mg/kg, IV 0.0025 mg/kg, mean, read-out: Plasma concentration Day 1 Hour 2, Mean
  concentration at 2 h: 0.249 ng/mL
iv, 0.0025 mg/kg, IV 0.0025 mg/kg, mean, read-out: Plasma concentration Day 1 Hour 4, Mean
  concentration at 4 h: 0.0887 ng/mL
iv, 0.0025 mg/kg, IV 0.0025 mg/kg, mean, read-out: Plasma concentration Day 1 Hour 6, Mean
  concentration at 6 h: 0.0598 ng/mL
iv, 0.0025 mg/kg, IV 0.0025 mg/kg, mean, read-out: Plasma concentration Day 1 Hour 8, Mean
  concentration at 8 h: 0.033 ng/mL
iv, 0.0025 mg/kg, IV 0.0025 mg/kg, mean, read-out: Plasma concentration Day 1 Hour 12, Mean
  concentration at 12 h: 0.0226 ng/mL
iv, 0.0025 mg/kg, IV 0.0025 mg/kg, mean, read-out: Plasma concentration Day 1 Hour 16, Mean
  concentration at 16 h: 0.00931 ng/mL
